Assay results as given in US20160201075A1, “REGULATOR OF ALGAL LIPID METABOLISM AND CELLULAR […] ITS APPLICATIONS” (Board of Trustees of Michigan State University, priority 2014, published 2016).

Test system: C. reinhardtii
Experiment: Growth in medium with 1 μM Rapamycin (time needed for division)
Assay type: cell-based, Chlamydomonas reinhardtii
Conditions: saturating concentration of Rapamycin (1 μM)
Excerpt: FIGS. 3A-3D illustrates the growth of cht7—expressing cells affected by different treatments. FIG. 3A graphically illustrates growth of cht7 and parental (dw15) lines on nitrogen-replete medium (optical density (OD) at 550 nm). Doubling times are given in parentheses. The grey bar indicates the OD at which nitrogen-replete samples were taken for all experiments in this study. Averages of three biological replicates are given with standard deviations for all points being smaller than 3%. FIG. 3B graphically illustrates growth of dw15, cht7, and four independent complementation lines (C1-4) during nitrogen deprivation (−N) followed by nitrogen resupply (+N) measured at the times indicted. Insert, cultures at 24 h following nitrogen resupply. FIG. 3C graphically illustrates growth during phosphate deprivation (−P) followed by phosphate resupply (+P). FIG. 3D graphically illustrates growth in the medium with 1 μM Rapamycin (+R) followed by the removal of Rapamycin (−R). Cultures were diluted twice (a) with medium containing 1 μM Rapamycin to avoid reaching stationary phase.
Growth under different nitrogen and phosphate regimes and following Rapamycin treatment, plating and viability assays, as well as lipid assays were performed using established methods.
Growth of the cht7 mutant was normal in nitrogen-replete medium under standard conditions (FIG. 3A). […]

CO[C@H]1C[C@@H]2CC[C@@H](C)[C@@](O)(O2)C(=O)C(=O)N2CCCC[C@H]2C(=O)O[C@H]([C@H](C)C[C@@H]2CC[C@@H](O)[C@H](OC)C2)CC(=O)[C@H](C)/C=C(\C)[C@@H](O)[C@@H](OC)C(=O)[C@H](C)C[C@H](C)/C=C/C=C/C=C/1C [Rapamycin]
time needed for division (cht7 mutant): 30.1 h
time needed for division (parental line (dw15)): 23.9 h
